In PMC6927504, “Screening of House Dust from Chinese Homes for Chemicals with Liver X Receptors Binding Activities and Characterization of Atherosclerotic Activity Using an in Vitro Macrophage Cell Line and ApoE^−/− Mice” (Environmental Health Perspectives, 2019):

Legend:
ABCG1 = assay: qRT-PCR of LXR target gene ABCG1 in RAW264.7 macrophages; type: cell-based; details: vehicle-treated cells set to 1
Experimental: (§1) RAW264.7 cells were obtained from the National Infrastructure of Cell Line Resource of Beijing, China, and the cells used for the experiment were cultured for at least three passages. Dulbecco’s Modified Eagle’s Medium (DMEM)-F12 medium containing 10% fetal bovine serum (FBS) was employed to culture the RAW264.7 cells. RAW264.7 cells were incubated at 37°C with 5% carbon dioxide. The RAW264.7 cells were plated at 2.5×10^5 cells/well (6-well plates), 6.0×10^4 cells/well (24-well plates), and 10^4 cells/well (96-well plates). The RAW264.7 cells were plated and grown overnight; then the medium was removed and fresh DMEM-F12 contained with 0.1% DMSO (control; n=3 ) or TPHP at the concentrations of 1–20,000 nM ( n=3 per group) was added. […] Then the cells were used for the quantitative reverse transcription (qRT)-PCR, cellular cholesterol efflux assay, and foam cell formation experiment.
Total RNA was isolated from RAW264.7 cells and mouse peritoneal macrophages using TRIzol reagent according to the manufacturer’s instructions. Then a Nanovue Plus™ spectrophotometer (GE Healthcare Life Science) was used to analyze the concentration, quality, and purity of the RNA. Total RNA ( 1μg ) was mixed with oligo deoxythymine (dT) ( 1μL ) at 70°C for 5 min and then combined with a mixture containing Moloney murine leukemia virus (MMLV) reverse transcriptase ( 1μL ), deoxy-ribonucleoside triphosphate (dNTP) ( 1.25μL ), Recombinant RNasin® Ribonuclease Inhibitor (Promega) ( 0.65μL ), and MMLV buffer ( 5μL ) at 42°C for 60 min. The SYBR® Green PCR Kit (TOYOBO) was used for RT-PCR analysis. Real-time fluorescence detection was performed using the StepOnePlus™ sequence detection system (Applied Biosystems). […] The following primers were designed and purchased from Sangon Biotech:
• actin: 5′-[…]-3′ and 5′-[…]-3′ ATP-binding cassette transporter A1 (ABCA1): 5′-[…]-3′ and 5′-[…]-3′ • ATP-binding cassette transporter G1 (ABCG1): 5′-[…]-3′ and 5′-[…]-3′.

ABCA1 = assay: qRT-PCR of ABCA1 in peritoneal macrophages isolated from exposed C57BL/6 mice; type: in vivo, mouse; details: 200 mg/kg BW oral gavage for 7 d, control set to 1, p<0.01
Experimental: Total RNA was isolated from RAW264.7 cells and mouse peritoneal macrophages using TRIzol reagent according to the manufacturer’s instructions. Then a Nanovue Plus™ spectrophotometer (GE Healthcare Life Science) was used to analyze the concentration, quality, and purity of the RNA. Total RNA ( 1μg ) was mixed with oligo deoxythymine (dT) ( 1μL ) at 70°C for 5 min and then combined with a mixture containing Moloney murine leukemia virus (MMLV) reverse transcriptase ( 1μL ), deoxy-ribonucleoside triphosphate (dNTP) ( 1.25μL ), Recombinant RNasin® Ribonuclease Inhibitor (Promega) ( 0.65μL ), and MMLV buffer ( 5μL ) at 42°C for 60 min. The SYBR® Green PCR Kit (TOYOBO) was used for RT-PCR analysis. Real-time fluorescence detection was performed using the StepOnePlus™ sequence detection system (Applied Biosystems). […]
All experiments related to animals were approved by the institutional animal care and use committee of Peking University and followed the guidelines for animal experiments of the university as well as for experimental animals in China. […] Body weight (BW) was measured every week during the dosing period. […] Considering that this study assessed the effects of short-term exposure to TPHP, whereas humans are exposed to TPHP over a lifelong period, the present study used exposure doses that were higher than that of human exposure from house dust. […]

RAW264.7 macrophages = assay: Cellular NBD-cholesterol efflux assay in RAW264.7 macrophages; type: cell-based
Experimental: as §1, with “plates).” for “plates). The RAW264.7 cells were plated and grown overnight; then the medium was removed and fresh DMEM-F12 contained with 0.1% DMSO (control; n=3 ) or TPHP at the concentrations of 1–20,000 nM ( n=3 per group) was added.”
RAW264.7 cells or mouse peritoneal macrophages were plated in 96-well plates at 10^4 cells/well and cultured with DMEM-F12 containing 10% FBS and 1μg/mL 22-[N-(7-nitrobenz-2-oxa-1,3-diazol-4-yl)amino]-23,24-bisnor-5-cholen-3β-Ol (NBD-cholesterol) for 24 h. […] NBD-cholesterol in the medium and cell lysis buffer were measured, respectively, using a Tecan Infinite® M1000Pro Microplate Reader (Tecan Group Ltd.) at 485-nm excitation wavelength and 535-nm emission wavelength. Cholesterol efflux was expressed as a percentage of fluorescence in the medium relative to the total amount of fluorescence.

O=P(Oc1ccccc1)(Oc1ccccc1)Oc1ccccc1 [TPHP, triphenyl phosphate]
ABCG1 gene expression relative to control (ABCG1; 100 nM, p<0.05): 0.87±0.05 fold
ABCG1 gene expression relative to control (ABCG1; 1,000 nM, p<0.05): 0.80±0.06 fold
ABCG1 gene expression relative to control (ABCG1; 5,000 nM, p<0.01): 0.52±0.02 fold
ABCG1 gene expression relative to control (ABCG1; 10,000 nM, p<0.01): 0.42±0.05 fold
ABCG1 gene expression relative to control (ABCG1; 20,000 nM, p<0.01): 0.28±0.02 fold
ABCA1 gene expression in peritoneal macrophages relative to control (ABCA1): 0.51±0.07 fold
NBD-cholesterol efflux mediated by ApoA-I (RAW264.7 macrophages; 100–20,000 nM): significantly inhibited
NBD-cholesterol efflux mediated by HDL (RAW264.7 macrophages; 1,000–20,000 nM): significantly inhibited
